Results from US6884600B1, “Protein phosphatase-1 catalytic subunit interactions” (Medical Research Council London, priority 1996, dated 2005).
Where two headings read alike, the source gives them in different places. One block for each molecule: values may come before it. No end group written: not given here.

Tests used:
PP1c (γ1-isoform) = PP1c (γ1-isoform) (Homo sapiens, UniProt P36873); experiment: Far Western: GST-GM fusion proteins probed with digoxygenin-labelled PP1γ; assay type: binding; settings: GST-fusion proteins on blot probed with digoxygenin-labelled PP1γ
Chain of PP1c (γ1-isoform) (P36873 whole entry, the tested form may be a part, canonical isoform): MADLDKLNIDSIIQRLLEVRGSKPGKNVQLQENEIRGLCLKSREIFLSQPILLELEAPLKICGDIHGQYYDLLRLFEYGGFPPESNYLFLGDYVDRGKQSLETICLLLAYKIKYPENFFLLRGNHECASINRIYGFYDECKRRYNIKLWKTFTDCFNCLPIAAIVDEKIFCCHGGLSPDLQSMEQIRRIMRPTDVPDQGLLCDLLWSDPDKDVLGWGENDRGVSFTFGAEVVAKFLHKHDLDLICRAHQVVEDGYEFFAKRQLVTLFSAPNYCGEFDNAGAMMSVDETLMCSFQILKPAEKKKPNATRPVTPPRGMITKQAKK
Source text: GST-GM fusion proteins were electrophoresed on 10% SDS/polyacrylamide gels and stained with Coomassie blue (lanes 1-3) or, after transfer to nitrocellulose, probed with digoxygenin-labelled PP1γ (lanes 4-6) as in [9]. Lanes 1 and 4, GST-GM-(E2-D118); Lanes 2 and 5, GST-GM-(H100-P350); Lanes 3 and 6, GST. The positions of the marker proteins glycogen phosphorylase (97 kDa), bovine serum albumin (66 kDa), ovalbumin (43 kDa), carbonic anhydrase (29 kDa) and soybean trypsin inhibitor (20 kDa) are indicated.
The myosin-associated form of PP1 (PP1M) was from chicken gizzard and the glycogen-associated form of PP1 (PP1G) from rabbit skeletal muscle. The β isoform of PP1c was released from PP1G by incubation for 2 hours in 2M LiBr, then purified by gel-filtration on a 30×1 cm column of Superose 12 (Pharmacia, Milton Keynes, U.K.) in the presence of 0.5M LiBr. Glycogen protein particles from rat liver were used as the source of hepatic PP1G Digoxygenin-labelled PP1c (γ1-isoform, hereafter termed PP1) was prepared as in [9]. GL was expressed in E. coli as a glutathione-S-transferase (GST) fusion protein [7], termed GST-GL. The catalytic subunit of PP2A from bovine heart (PP2AC) was provided by Dr R. MacKintosh in this Unit. The phosphorylatable myosin light chain (MLC20) and heavy meromyosin from chicken gizzard were a gift from Dr M. Ikebe (Case Western Reserve University, Cleveland, USA). […]

PP1c [1] = target: T1, PP1c (Oryctolagus cuniculus, UniProt P62143); experiment: Phosphorylase phosphatase activity of PP1c; assay type: biochemical, rabbit
T1 construct: from tissue; host or cells: rabbit skeletal muscle (PP1G dissociated with LiBr)
T1 sequence (P62143 whole entry): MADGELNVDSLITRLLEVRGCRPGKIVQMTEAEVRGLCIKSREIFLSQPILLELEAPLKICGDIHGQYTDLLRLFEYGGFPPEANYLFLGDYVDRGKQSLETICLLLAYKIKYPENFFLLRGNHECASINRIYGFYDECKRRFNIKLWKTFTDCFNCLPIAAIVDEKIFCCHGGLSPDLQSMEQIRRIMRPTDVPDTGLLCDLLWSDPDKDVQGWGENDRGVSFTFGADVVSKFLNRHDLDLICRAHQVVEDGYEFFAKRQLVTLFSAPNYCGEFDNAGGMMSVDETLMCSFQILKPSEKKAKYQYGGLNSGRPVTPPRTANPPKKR
Description: (§1) A,B; Effects of M110-(M1-E309) (closed circles), M110-(M1-F38) (open circles) and M110-(D39-E309) (open triangles) on the MLC20 phosphatase […] and phosphorylase phosphatase (B) activities of PP1c were measured after incubating PP1c for 15 minutes at 30° C. with each fragment. The results are presented as a percentage of those obtained in experiments where the M110 fragments were omitted.
(§2) C,D; The effect of M110-(M1-A150) (open circles) and M110-(L24-Y496) (closed circles) on the MLC20 phosphatase (C) and phosphorylase phosphatase (D) activities of PP1c were measured as in A,B.
(B) The phosphorylase phosphatase activity of PP1c was assayed as in A in the presence or absence of 1 μM GM-(G63-T93) and 1.0 nM M110-(M1-E309). The results are presented (SEM for three experiments) as a percentage of the PP1c activity measured in the absence of GM-(63-T93), M110-(M1-F38) or M110-(M1-E309).
(§3) The myosin-associated form of PP1 (PP1M) was from chicken gizzard and the glycogen-associated form of PP1 (PP1G) from rabbit skeletal muscle. The β isoform of PP1c was released from PP1G by incubation for 2 hours in 2M LiBr, then purified by gel-filtration on a 30×1 cm column of Superose 12 (Pharmacia, Milton Keynes, U.K.) in the presence of 0.5M LiBr. Glycogen protein particles from rat liver were used as the source of hepatic PP1G Digoxygenin-labelled PP1c (γ1-isoform, hereafter termed PP1) was prepared as in [9]. GL was expressed in E. coli as a glutathione-S-transferase (GST) fusion protein [7], termed GST-GL. The catalytic subunit of PP2A from bovine heart (PP2AC) was provided by Dr R. MacKintosh in this Unit. The phosphorylatable myosin light chain (MLC20) and heavy meromyosin from chicken gizzard were a gift from Dr M. Ikebe (Case Western Reserve University, Cleveland, USA). Thrombin and benzamidine-Agarose were purchased from Sigma (Poole, UK).
(§4) ^32P-labelled rabbit skeletal muscle phosphorylase a (containing 1.0 mol phosphate per mol subunit) was prepared by phosphorylation with phosphorylase kinase, ^32P-labelled rabbit skeletal muscle glycogen synthase (containing 1.5 mol/mol subunit in the sites 3 region) was prepared by phosphorylation with glycogen synthase kinase-3 [24]). ^32P-labelled chicken gizzard MLC20 and ^32P-labelled chicken gizzard heavy meromyosin (containing 1.0 mol phosphate per mol subunit) were prepared by phosphorylation with smooth muscle myosin light chain kinase. The dephosphorylation of phosphorylase a (10 μM), glycogen synthase (1 μM) and MLC20 (1 μM) and heavy meromyosin (1 μM) was carried out as in [24]. One unit of activity (U) was that amount which released […] of phosphate in one minute.
(§5) PP1c was isolated from the rabbit skeletal muscle PP1-GM complex as described previously (Johnson et al, 1996). Glycogen particles isolated from rat liver (Schelling el al, 1988) served as the source of PP1-GL. The dephosphorylation of glycogen phosphorylase (10 μM) and the isolated MLC20 of smooth muscle myosin (1 μM) by PP1c was carried out as described previously (Cohen et al., 1988; Alessi et al., 1992).

PP1c [2] = target: T1, PP1c; experiment: MLC20 (myosin P-light chain) phosphatase activity of PP1c; assay type: biochemical
Description: as §1, §2
(A) The MLC20 phosphatase activity of PP1c was assayed after incubation for 15 minutes at 30° C. in the presence or absence of 1 μM GM-(G63-T93) and either 0.1 μM M110-(M1-F38) or 0.1 nM M110-(M1-E309).
(1-38, open circles) or M110[M1-K35] (1-35, closed circles) were incubated with PP1c for 15 min at 30° C. and reactions started with the ^32P-labelled MLC20 substrate. The results are expressed as a % of the activity determined in control incubations where the M110 peptides were omitted (100%). Similar results were obtained in three separate experiments.
as §3, §4, §5
^32P-labelled myosin P-light chains containing 1.0 mol phosphate per mol subunit was prepared by phosphorylation with smooth muscle myosin light chain kinase. The dephosphorylation of myosin P-light chain (1 μM) was carried out as in [4] and one unit of activity (U) was that amount which catalysed the release of 1 μmole of phosphate in one min. When assaying PP1M in immunoprecipitates from the myofibrillar extracts, the tubes were shaken continuously and 3 nM okadaic acid was included to inhibit any PP2A present.

PP1c [3] = target: T1, PP1c; experiment: Glycogen synthase phosphatase activity of PP1c; assay type: biochemical, rabbit
Description: The glycogen synthase phosphatase activity of PP1c was measured after a 15 minute incubation at 30° C. with the indicated concentrations of M110-(M1-F38) and M110-(M1-E309). Similar results were obtained in three different experiments.
as §4

PP1c [4] = target: T1, PP1c; experiment: Dephosphorylation of heavy meromyosin by PP1c; assay type: biochemical, rabbit; settings: data not shown
Description: as §4

PP1GL = experiment: Phosphorylase phosphatase activity of PP1GL (hepatic glycogen particles); assay type: biochemical, rat
Description: Hepatic glycogen particles were diluted in assay buffer to 0.6 phosphorylase phosphatase (PhP) mU per ml, incubated for 15 minutes at 30° C. with GM-(G63-T93) (closed circles), GM-(G63-K80) (open circles) or GM-(G63-N75) (closed triangles) and assayed as described in Example 1. The open triangles show the effect of GM-(G63-N75) which had been phosphorylated at Ser67 by PKA (pGM-(G63-N75)). Similar results were obtained in four experiments.
(A) Hepatic glycogen protein particles containing PP1-GL were diluted and incubated for 15 min at 30° C. with the indicated concentrations of either M110[M1-F38] (open circles) or M110[M1-K35] (closed circles) and the phosphatase reactions were initiated by addition of ^32P-labelled glycogen phosphorylase. The results are expressed as a percentage of the activity determined in control incubations where the M110 peptides were omitted. Similar results were obtained in three separate experiments. (B) The experiment was carried out as in (A), except that the peptide GM[G63-N75] (“wild type”, WT) and variants in which either Val 66 (V66A) (closed triangles) or Phe 68 (F68A) (closed circles) were changed to Ala, were used instead of the M110 peptides. Similar results were obtained in three separate experiments.
as §3, §4, §5

PP1 and PP2A = settings: refs [17], [19]; cited from earlier work

Molecule: GST: glutathione-S-transferase [reference compound]
interaction with PP1 in Far Western experiments (PP1c (γ1-isoform)): did not interact with PP1c
effect on the phosphorylase phosphatase activity of PP1c (PP1c [1]): no effect
effect on the MLC20 phosphatase activity of PP1c (PP1c [2]): no effect

Molecule: MKMADAKQKRNEQLKRWIGSETDLEPPVVKRQKTKVKF [M110-(M1-F38)]
effect on the dephosphorylation of glycogen synthase by PP1c (PP1c [3]): greatly enhanced
effect on the phosphorylase phosphatase activity of PP1c (PP1c [1]): did not inhibit the phosphorylase phosphatase activity of PP1c
effect on the phosphorylase phosphatase activity of PP1c (PP1c [1]; each peptide individually, at concentrations up to 1 μM): no effect
effect on the dephosphorylation of heavy meromyosin by PP1c (PP1c [4]): stimulated the dephosphorylation of heavy meromyosin in a similar manner to the dephosphorylation of MLC20
displacement of GL from PP1c (PP1GL): capable of displacing GL from PP1GL
increase in the phosphorylase phosphatase activity of PP1GL (PP1GL; 10 μM peptide): 3.5 fold
EC50 (PP1c [2]): 10 nM
concentration needed to modulate the specificity of PP1c compared to thrombin-cleaved M110-(M1-E309) (PP1c [2]): at least 100 fold higher
effect on the MLC20 phosphatase activity of PP1c (PP1c [2]): stimulate the MLC20 phosphatase activity of PP1c to the same extent as M110-(M1-E309)
increase in PP1c activity towards MLC20 (maximal activation) (PP1c [2]): 3 fold
peptide concentration at maximal activation of the myosin light chain phosphatase activity of PP1c (PP1c [2]): 1 µM

Molecule: C=C1[C@@H](O)[C@@H]2O[C@]3(CC[C@H](/C=C/[C@@H](C)[C@@H]4CC(C)=C[C@@]5(O[C@H](C[C@@](C)(O)C(=O)O)CC[C@H]5O)O4)O3)CC[C@H]2O[C@@H]1[C@@H](O)C[C@H](C)[C@H]1O[C@@]2(CCCCO2)CC[C@H]1C [okadaic acid]
relative potency as inhibitor of PP1 and PP2A (PP1 and PP2A): a much more potent inhibitor of PP2A than PP1

effect on the phosphorylase phosphatase activity of PP1c (PP1c [1]; at concentrations up to 10 μM): no effect
effect on the phosphorylase phosphatase activity of PP1GL (PP1GL; at concentrations up to 10 μM): no effect
Molecule: GM-(E81-T93): peptide generated by cleaving GM-(G63-T93) with Lys-C endoproteinase (DCWELPSASTTFD; UniProt Q16821 81-93, looked up, fragment)

Molecule: CO[C@H]([C@H](O)CC(=O)[C@@H](C)[C@@H](O)CC[C@@H](C)[C@@H]1O[C@]2(CC[C@@H](C)[C@H](CC[C@H](C)C(C)=O)O2)CC[C@@H]1C)[C@H](OC(=O)C[C@@H](O)C1=C(C)C(=O)OC1=O)C(C)C [tautomycin]
relative potency as inhibitor of PP1 and PP2A (PP1 and PP2A): a much more potent inhibitor of PP1 than PP2A

Molecule: GM-(G63-N75): synthetic 13 residue peptide, residues 63-75 of GM (GRRVSFADNFGFN)
effect on the phosphorylase phosphatase activity of PP1c (PP1c [1]; at concentrations up to 10 μM): did not increase the phosphorylase phosphatase activity of PP1c significantly
effect on the phosphorylase phosphatase activity of PP1GL (PP1GL; hepatic glycogen particles containing PP1-GL): increased the phosphorylase phosphatase activity of PP1GL, but were less effective than GM-(G63-T93)
